Earlier results, collected in US20250134380A1, “DETECTION AND LOCALIZATION OF DISEASE UTILIZING FLUORESCENCE SPECTRA OF EXOGENOUS FLUOROPHORES” (PREVIEW MEDICAL INC., priority 2022, published 2025).

Test system: hyperthermia treated tumor
Settings: animal models; hyperthermia treated vs non-hyperthermia treated tumors

ICG uptake in hyperthermia treated tumor relative to non-hyperthermia treated tumors: 1.23 times
SMILES: CC1(C)C(/C=C/C=C/C=C/C=C2\N(CCCCS(=O)(=O)O)c3ccc4ccccc4c3C2(C)C)=[N+](CCCCS(=O)(=O)[O-])c2ccc3ccccc3c21 [ICG, Indocyanine green]
